The record followed here is patent US20250113823A1, “Arthropod Control Compositions” (priority 2022, published 2025).

Test [1] deals with Aedes aegypti. The experiment in a line: Warm Body assay, mosquito landings on treated warm body. The settings on record: for pest or weed control at 1 % / pest or weed control at 0.04 %: read-out: repellence; for pest or weed control at 0.04 %: intermediate concentration of 0.04% (Table 3); for pest or weed control at 0.0016 %: lowest concentration of 0.0016% (Table 3), read-out: reduce the number of mosquito landings. Type of test: in vivo. As for the experimental part:
The arthropod controlling effect according to the present invention is determined on mosquitoes using an adapted Warm Body assay as defined in Kröber T, Kessler S, Frei J, Bourquin M, Guerin PM. An in vitro assay for testing mosquito controlling compounds employing a warm body and carbon dioxide as a behavioral activator. J Am Mosq Control Assoc. 2010; 26: 381-386. Further information is provided in the accompanying examples
The controlling effect, repellence & spatial repellence, according to the present invention is determined by testing the Warm Body assay against the yellow fever mosquito, Aedes aegypti Rockefeller strain. […] Observations of controlling efficacy were made on host-seeking females of uniform age, 5 to 10 days old selected as mentioned in the publication mentioned hereinabove. Tested hungry females had access to 10% sugar solution but were not blood-fed. Further information is provided in the accompanying examples.
The published protocol has been adapted in not manually counting the landing mosquitoes but automatically using an automatic counting software, the switch from Anopheles gambiae to A. aegypti led to a decrease of mosquitoes' number placed in the tested cage due to the size difference (i.e. 30 mosquitoes instead of 50) and to an increase of lighting as A. aegypti is a diurnal mosquitoes (i.e. 150 lux instead of 4 lux). Further information is provided in the accompanying examples. […]
(§1) The controlling effect according to the present invention was assessed using an adapted Warm Body assay as defined in Kröber T, Kessler S, Frei J, Bourquin M, Guerin P M. 2010. J Am Mosq Control Assoc. 26: 381-386. In this in-vitro assay the number of mosquito landing on a warm body, simulating an attractive host treated with the tested stimuli, was measured in order to assess the repellence effect.
The published protocol has been adapted as the switch from Anopheles gambiae to Aedes aegypti led to a decrease of mosquitoes placed in the tested cage due to the size difference (i.e. 30 mosquitoes instead of 50) and to an increase of lighting since A. aegypti is a diurnal mosquitoes (i.e. 150 lux instead of 4 lux).
(§2) On the sandblasted glass Petri dish covering the warm body (28.3 cm^2), 100 μL of the compounds diluted at different concentrations in ethanol was applied. The number of mosquito landing on the warm body was counted for each stimulus and pure ethanol (solvent) as control.

Test [2] concerns Anopheles gambiae. The description is as above. In kind it is in vivo. The settings on record: Anopheles gambiae, read-out: Percentage of repellence of mosquitoes Anopheles gambiae landing on the warm body; for pest or weed control at 4470 µg/mL: 4.47 mg/mL (Table 4); for pest or weed control at 10000 µg/mL: 10 mg/mL (Table 4); for pest or weed control at 178 µg/mL: 0.178 mg/mL (Table 4); for pest or weed control at 267 µg/mL: 0.267 mg/mL (Table 4); for pest or weed control at 400 µg/mL: 0.4 mg/mL (Table 4). As for the experimental part:
Anopheles gambiae is also a model organism as it is anthropophilic and transmits malaria.
as §1, §2

For test [3], the system named is Ixodes ricinus. The experiment in a line: Warm Plate assay, tick repellence.
Where [4] appears, read: Aedes aegypti, 0.016 mg/mL (Table 3), read-out: Percentage of repellence of mosquitoes Aedes aegypti landing on the warm body.
Setting [5] is: Aedes aegypti, 0.4 mg/mL (Table 3), read-out: Percentage of repellence of mosquitoes Aedes aegypti landing on the warm body.
The mark [6] stands for this setting: Aedes aegypti, 10 mg/mL (Table 3), read-out: Percentage of repellence of mosquitoes Aedes aegypti landing on the warm body.
Setting [7] is: Aedes aegypti, highest tested concentration, 1% (Table 3).

Molecules are shown by their SMILES. Where two headings read alike, the source gives them in different places. Where only a bound is given, the exact number is not on record here.

For the molecule `CCOc1cc(COC)ccc1O` [compound 1271, 2-ethoxy-4-(methoxymethyl)phenol], in test [1] (setting [4]), the pest or weed control at 16 µg/mL stood at 29%. The pest or weed control at 400 µg/mL in test [1] (setting [5]) was determined as 84%. Also, the pest or weed control at 10000 µg/mL in test [1] (setting [6]) is 96%; in test [2], 92%. The pest or weed control at 1 % in test [1] (setting [7]) was greater than 90%. Besides, the pest or weed control at 0.04 % in test [1] (Aedes aegypti) was greater than 75%. Also, the pest or weed control at 4470 µg/mL in test [2] turned out to be 95%.

For `COc1ccc(C(C)=O)c(O)c1` [compound 1559, 2-hydroxy-4-methoxyacetophenone], the “Percentage of repellence of mosquitoes Aedes aegypti landing on the warm body” value turned out to be 90% in test [1] (0.016 mg/mL (Table 3)), 98% in test [1] (0.4 mg/mL (Table 3)) and 98% in test [1] (10 mg/mL (Table 3)). In addition, the “Percentage of repellence of ticks Ixodes ricinus on the warm plate” value in test [3] (0.4 mg/mL (Table 10)) is 13.3%; in test [3] (2 mg/mL (Table 10)), 57.1%; in test [3] (10 mg/mL (Table 10)), 91.7%.

With `COc1cc(C(C)=O)ccc1O` [compound 1468, 1-(4-hydroxy-3-methoxyphenyl)ethanone], the pest or weed control at 16 µg/mL in test [1] (setting [4]) was determined as 64%. The pest or weed control at 400 µg/mL in test [1] (setting [5]) was determined as 74%. Moreover, the pest or weed control at 10000 µg/mL in test [1] (setting [6]) came out at 90%. For the same molecule, the pest or weed control at 0.0016 % in test [1] (Aedes aegypti) was greater than 50%. Moreover, in test [2], the pest or weed control at 4470 µg/mL came to 59% and the pest or weed control at 10000 µg/mL was 79%.

For `CCCc1ccc2c(c1)OC(C(C)=O)O2` (centres unmarked) [compound 908, 1-(5-propyl-1,3-benzodioxol-2-yl)ethanone], the pest or weed control at 16 µg/mL in test [1] (setting [4]) turned out to be 10%. Moreover, the pest or weed control at 400 µg/mL in test [1] (setting [5]) is 37%. Besides, the pest or weed control at 10000 µg/mL in test [1] (setting [6]) was found to be 85%. In test [2], the pest or weed control at 178 µg/mL amounted to 61%, the pest or weed control at 267 µg/mL was 95%, the pest or weed control at 400 µg/mL is 51% and the pest or weed control at 4470 µg/mL came to 74%. Also, the pest or weed control at 10000 µg/mL in test [2] amounted to 84%.

For `CC(C)c1ccc2c(c1)OCC(=O)CO2` [compound 1232, isopropyl-2H,4H-1,5-benzodioxepin-3-one, 7-], the pest or weed control at 16 µg/mL in test [1] (setting [4]) came to 0%. In test [1] (setting [5]), the pest or weed control at 400 µg/mL is 32%. For the same molecule, in test [1] (setting [6]), the pest or weed control at 10000 µg/mL worked out at 86%. Moreover, in test [2], the pest or weed control at 178 µg/mL amounted to 27%, the pest or weed control at 267 µg/mL turned out to be 34%, the pest or weed control at 400 µg/mL was found to be 65% and the pest or weed control at 4470 µg/mL worked out at 91%. In addition, the pest or weed control at 10000 µg/mL in test [2] was found to be 86%.

On to `COc1ccc(CC(=O)O)cc1OC` [compound 1564, 2-(3,4-dimethoxyphenyl)acetic acid], for which the pest or weed control at 16 µg/mL in test [1] (setting [4]) worked out at 24%. In addition, in test [1] (setting [5]), the pest or weed control at 400 µg/mL is 69%. In test [1] (setting [6]), the pest or weed control at 10000 µg/mL was 82%. In addition, in test [2], the pest or weed control at 178 µg/mL was found to be 42%, the pest or weed control at 267 µg/mL amounted to 58%, the pest or weed control at 400 µg/mL is 9% and the pest or weed control at 4470 µg/mL was determined as 97%. Further, in test [2], the pest or weed control at 10000 µg/mL is 97%.

For `COC(=O)C(C)Cc1ccc(OC)c(OC)c1` (centres unmarked) [compound 1698, methyl 3-(3,4-dimethoxyphenyl)-2-methylpropanoate], the pest or weed control at 16 µg/mL in test [1] (setting [4]) came to 45%. Moreover, the pest or weed control at 400 µg/mL in test [1] (setting [5]) was determined as 88%. Also, in test [1] (setting [6]), the pest or weed control at 10000 µg/mL is 100%. In addition, the pest or weed control at 1 % in test [1] (setting [7]) is greater than 90%. Also, in test [1] (Aedes aegypti), the pest or weed control at 0.04 % was greater than 75%. In addition, the “mosquito landing within the two minutes of experiments” value in test [1] (highest tested concentration, 1% (Table 3)) is “protect the attractive stimulus for any mosquito landing”.

As to `CC=Cc1cc(OC)c(OC)c(OC)c1` [compound 1123, 1,2,3-trimethoxy-5-[1-propen-1-yl]benzene], the pest or weed control at 3.2 µg/mL in test [1] (Aedes aegypti, 0.0032 mg/mL (Table 1), read-out: Percentage of repellence of mosquitoes Aedes aegypti landing on the warm body) turned out to be 28%. Moreover, in test [1] (Aedes aegypti, 0.0071 mg/mL (Table 1), read-out: Percentage of repellence of mosquitoes Aedes aegypti landing on the warm body), the pest or weed control at 7.1 µg/mL is 10%. Also, in test [1] (Aedes aegypti, 0.016 mg/mL (Table 1), read-out: Percentage of repellence of mosquitoes Aedes aegypti landing on the warm body), the pest or weed control at 16 µg/mL was 63%. Further, in test [1] (Aedes aegypti, 0.0357 mg/mL (Table 1), read-out: Percentage of repellence of mosquitoes Aedes aegypti landing on the warm body), the pest or weed control at 35.7 µg/mL is 45%. Further, the pest or weed control at 53 µg/mL in test [1] (Aedes aegypti, 0.053 mg/mL (Table 1), read-out: Percentage of repellence of mosquitoes Aedes aegypti landing on the warm body) came out at 81%. Further, the pest or weed control at 80 µg/mL in test [1] (Aedes aegypti, 0.08 mg/mL (Table 1), read-out: Percentage of repellence of mosquitoes Aedes aegypti landing on the warm body) was 67%. For the same molecule, the pest or weed control at 119 µg/mL in test [1] (Aedes aegypti, 0.119 mg/mL (Table 1), read-out: Percentage of repellence of mosquitoes Aedes aegypti landing on the warm body) was determined as 71%. Besides, the pest or weed control at 178 µg/mL in test [1] (Aedes aegypti, 0.178 mg/mL (Table 1), read-out: Percentage of repellence of mosquitoes Aedes aegypti landing on the warm body) stood at 83%. For the same molecule, the pest or weed control at 267 µg/mL in test [1] (Aedes aegypti, 0.267 mg/mL (Table 1), read-out: Percentage of repellence of mosquitoes Aedes aegypti landing on the warm body) was 90%. Moreover, in test [1] (Aedes aegypti, 0.4 mg/mL (Table 1), read-out: Percentage of repellence of mosquitoes Aedes aegypti landing on the warm body), the pest or weed control at 400 µg/mL turned out to be 91%. Also, the pest or weed control at 598 µg/mL in test [1] (Aedes aegypti, 0.598 mg/mL (Table 1), read-out: Percentage of repellence of mosquitoes Aedes aegypti landing on the warm body) turned out to be 95%. Further, the pest or weed control at 890 µg/mL in test [1] (Aedes aegypti, 0.89 mg/mL (Table 1), read-out: Percentage of repellence of mosquitoes Aedes aegypti landing on the warm body) stood at 90%. In addition, the pest or weed control at 2000 µg/mL in test [1] (Aedes aegypti, 2 mg/mL (Table 1), read-out: Percentage of repellence of mosquitoes Aedes aegypti landing on the warm body) worked out at 98%. For the same molecule, the pest or weed control at 4470 µg/mL in test [1] (Aedes aegypti, 4.47 mg/mL (Table 1), read-out: Percentage of repellence of mosquitoes Aedes aegypti landing on the warm body) was found to be 100%. Also, in test [1] (Aedes aegypti, 10 mg/mL (Table 1), read-out: Percentage of repellence of mosquitoes Aedes aegypti landing on the warm body), the pest or weed control at 10000 µg/mL was determined as 98%.

For `C=CC(C)CCCC(C)(C)OCC=Cc1ccc(O)c(OC)c1` (centres unmarked) [compound 1519, 4-{3-[(2,6-dimethyl-7-octen-2-yl)oxy]-1-propen-1-yl}-2-methoxyphenol], in test [1] (setting [4]), the pest or weed control at 16 µg/mL is 67%. Besides, the pest or weed control at 400 µg/mL in test [1] (setting [5]) came to 71%. Besides, the pest or weed control at 10000 µg/mL in test [1] (setting [6]) is 95%. The pest or weed control at 1 % in test [1] (setting [7]) was greater than 90%. Also, the pest or weed control at 0.0016 % in test [1] (Aedes aegypti) was greater than 50%.

With `COc1ccc(C#N)c(OC)c1OC` [compound 2266, 2,3,4-trimethoxybenzonitrile], in test [1] (setting [4]), the pest or weed control at 16 µg/mL amounted to 48%. Also, the pest or weed control at 400 µg/mL in test [1] (setting [5]) turned out to be 83%. Also, the pest or weed control at 10000 µg/mL in test [1] (setting [6]) came to 89%. The pest or weed control at 0.04 % in test [1] (Aedes aegypti) is greater than 75%.

With `CCOc1c(OC)cccc1OC` [compound 2276, 2-ethoxy-1,3-dimethoxybenzene], the pest or weed control at 16 µg/mL in test [1] (setting [4]) turned out to be 0%. In test [1] (setting [5]), the pest or weed control at 400 µg/mL amounted to 0%. Also, the pest or weed control at 10000 µg/mL in test [1] (setting [6]) came out at 98%. The pest or weed control at 1 % in test [1] (setting [7]) is greater than 90%.
